Assays:
RIPK2 enzyme = biological target: T1, RIPK2 enzyme (Homo sapiens, UniProt O43353); test: RIPK2 inhibition (ADP-Glo Kinase Assay); format: biochemical; settings: RIPK2 5 nM, ATP 150 μM, MBP substrate, read-out: RIPK2 IC50
T1 construct: purchased Carna 09-128
Outline: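 Swine MBP substrate; compound and 5 nM RIPK2 first mixed for 30 min at room temperature; buffer pH 7.5 HEPES 50 mM with 10 mM MgCl2, 2 mM DTT, 1 mM EGTA, Brij-35, BSA.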

human NOD2 signaling = test: Inhibition of human NOD2 signaling in HEK-Blue-hNOD2 cells (L18-MDP stimulated, SEAP reporter); format: cell-based; settings: Homo sapiens, HEK-Blue hNOD2, HEK-Blue-hNOD2 cells, NOD2 ligand stimulation, SEAP reporter; read-out: hNOD2 IC50
Outline: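 Read-out is SEAP absorbance at 620 nm after 3 h QUANTI-Blue development of supernatant from HEK293 cells carrying NOD2 and a SEAP reporter (12500/well). Cells got compound (10 points, 3-fold dilutions) and 0.5 ng/mL L18-MDP for 24 h at 37 °C; percent inhibition vs stimulated/unstimulated controls, 4-parameter IC50.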

[1] = system: TNF-alpha secretion in human whole blood; test: Inhibition of TNF-alpha secretion in human whole blood (IFN-gamma primed, L18-MDP stimulated); format: cell-based; settings: Homo sapiens, 16 h, L18-MDP 100 ng/mL, read-out: Human Whole Blood TNFα IC50
Method: Materials: Assay medium consisted of RPMI 1640 medium (catalogue number: 11875119) and 10% heat inactivated FBS (Cytvia). U-PLEX Biomarker Assay (cat #K15067L-4) to detect levels of TNF-alpha was purchased from Meso Scale Discovery. Heparinized whole blood from healthy donors/volunteers was obtained through Research Blood Components, LLC.
Test compounds were prepared into a 10 mM DMSO solution and serially diluted into 9 points using a 3-fold dilution in a 96 well plate. A 10× working stock solution of recombinant human IFN-gamma (final concentration of 10 ng/mL) was prepared in assay medium and used to prepare a 10× solution of test compound. 20 μL of 10×IFN-gamma and test compound (or DMSO control) was added to a 96-well plate. 160 μL of heparinized whole blood obtained from healthy donors was dispensed into individual wells of the 96-well plate and placed on a plate shaker (150 rpm) and incubated for 60 min at 37° C. in a CO2 incubator. Subsequently, 20 μL of L18-MDP (final concentration of 100 ng/mL) was added to the appropriate wells and further incubated for 16 hours on a plate shaker (150 rpm) at 37° C. in a CO2 incubator. The final concentration of DMSO was 0.05% (v/v) in all wells. After incubation, 100 μL of DPBS was added per well, mixed by shaking at 500 rpm for 2 minutes, followed by centrifugation (400×g for 10 minutes) and collection of supernatants. TNF-alpha in supernatants was measured using MSD immunoassay (MesoScale Discovery). 4-parametric curve fit was used to determine the test compound concentration that results in 50% reduction of TNF-alpha concentration in supernatant relative to assay controls.

[2] = biological target: T2, RIPK2 and XIAP protein-protein interaction (Homo sapiens, UniProt O43353); test: Inhibition of the interaction of RIPK2 with XIAP (NanoBRET in HEK293T cells); format: cell-based; settings: RIPK2 HaloTag / XIAP NanoLuc, read-out: NanoBRET Scaffolding IC50
T2 construct: the N-terminus of full-length RIPK2 was appended with the HaloTag fusion protein; expressed in transfected cells; host or cells: HEK293T
Outline: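 HEK293T cells transiently co-transfected with HaloTag-RIPK2 (N-terminal) and XIAP-NanoLuc (C-terminal) full-length fusions, grown 24 h at 37° C. in Opti-MEM with 4% FBS. Compounds tested as 10-point 3-fold dilutions; NanoBRET ratio taken as 618 nm acceptor over 460 nm donor emission.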

T2 sequence (O43353 whole entry, the tested form may be a part): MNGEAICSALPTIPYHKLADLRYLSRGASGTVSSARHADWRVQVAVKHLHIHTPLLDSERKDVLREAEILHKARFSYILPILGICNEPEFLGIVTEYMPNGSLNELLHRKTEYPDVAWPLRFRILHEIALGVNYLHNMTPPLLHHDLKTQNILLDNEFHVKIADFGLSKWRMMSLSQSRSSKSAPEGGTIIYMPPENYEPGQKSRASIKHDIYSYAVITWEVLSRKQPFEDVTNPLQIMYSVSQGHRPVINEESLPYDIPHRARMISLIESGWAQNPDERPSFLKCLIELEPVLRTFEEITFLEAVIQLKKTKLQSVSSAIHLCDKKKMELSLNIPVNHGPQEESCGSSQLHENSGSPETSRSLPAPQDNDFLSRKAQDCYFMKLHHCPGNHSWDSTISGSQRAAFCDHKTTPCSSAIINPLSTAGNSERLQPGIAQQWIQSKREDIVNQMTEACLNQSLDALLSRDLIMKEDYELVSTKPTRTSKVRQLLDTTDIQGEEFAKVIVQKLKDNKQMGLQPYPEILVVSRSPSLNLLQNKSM
T1 sequence (O43353 1-299 limits assumed): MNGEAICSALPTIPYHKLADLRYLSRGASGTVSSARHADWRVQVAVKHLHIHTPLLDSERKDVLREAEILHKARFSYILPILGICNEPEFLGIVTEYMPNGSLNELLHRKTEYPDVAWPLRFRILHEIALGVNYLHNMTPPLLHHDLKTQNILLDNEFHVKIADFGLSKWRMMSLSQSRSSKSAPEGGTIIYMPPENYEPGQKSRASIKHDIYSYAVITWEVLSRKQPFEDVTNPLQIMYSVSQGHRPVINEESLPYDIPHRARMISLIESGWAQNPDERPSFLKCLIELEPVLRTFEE

| SMILES | IC50 (RIPK2 enzyme) [nM] | IC50 (human NOD2 signaling) [nM] | IC50 [1] [nM] | IC50 [2] [nM] |
| --- | --- | --- | --- | --- |
| Cc1cc(CC(=O)Nc2noc(C(C)(C)C)n2)ccc1Oc1ccnc2ccc(S(C)(=O)=O)cc12 [Compound 182, N-(5-(tert-butyl)-1,2,4-oxadiazol-3-yl)-2-(3-methyl-4-((6-(methylsulfonyl)quinolin-4-yl)oxy)phenyl) acetamide] | < 2.5 | 2 | 14 | 18 |
| Cc1cc(CC(=O)Nc2cnn(C34CC(C3)C4)c2)ccc1Oc1ccnc2ccc(S(C)(=O)=O)cc12 [Compound 239, N-(1-(bicyclo[1.1.1]pentan-1-yl)-1H-pyrazol-4-yl)-2-(3-methyl-4-((6-(methylsulfonyl)quinolin-4-yl)oxy)phenyl)acetamide] | < 2.5 | 2.9 | 37 | 20 |
| Cc1cc(CC(=O)Nc2cnn(C(C)(C)C)c2)cc(F)c1Oc1ccnc2ccc(S(C)(=O)=O)cc12 [Compound 299, N-(1-(tert-butyl)-1H-pyrazol-4-yl)-2-(3-fluoro-5-methyl-4-((6-(methylsulfonyl)quinolin-4-yl)oxy)phenyl)acetamide] | < 2.5 | 3.4 | 49 | 73 |
| Cc1cc(CC(=O)Nc2nnc(C(C)(C)C)s2)c(F)cc1Oc1ccnc2ccc(S(C)(=O)=O)cc12 [Compound 443, N-(5-(tert-butyl)-1,3,4-thiadiazol-2-yl)-2-(2-fluoro-5-methyl-4-((6-(methylsulfonyl)quinolin-4-yl)oxy)phenyl) acetamide] | < 2.5 | 1.1 | 83 | 11 |
| Cc1cc(CC(=O)Nc2cnn(C(C)(C)C)c2)cc(F)c1Oc1ccnc2ccc(C(N)=O)cc12 [Compound 468, 4-(4-(2-((1-(tert-butyl)-1H-pyrazol-4-yl)amino)-2-oxoethyl)-2-fluoro-6-methylphenoxy)quinoline-6-carboxamide] | < 2.5 | 2.1 | 8.4 | 69.1 |
| [2H]C([2H])([2H])NC(=O)c1ccc2nccc(Oc3ccc(CC(=O)Nc4cnn(C56CC(C5)C6)c4)cc3C)c2c1 [Compound 559, 4-(4-(2-((1-(bicyclo[1.1.1]pentan-1-yl)-1H-pyrazol-4-yl)amino)-2-oxoethyl)-2-methylphenoxy)-N-(methyl-d3)quinoline-6-carboxamide] | < 2.5 | 1 | 2 | 95.8 |

Second part, the compound after the results:

| IC50 (RIPK2 enzyme) [nM] | IC50 (human NOD2 signaling) [nM] | IC50 [1] [nM] | IC50 [2] [nM] | SMILES |
| --- | --- | --- | --- | --- |
| < 2.5 | 38.1 | 6 | 465 | Cc1cc(CC(=O)Nc2cnn(C(C)(C)C)c2)ccc1Oc1ccnc2ccc(P(C)(C)=O)cc12 [Compound 179, N-(1-(tert-butyl)-1H-pyrazol-4-yl)-2-(4-((6-(dimethylphosphoryl)quinolin-4-yl)oxy)-3-methylphenyl) acetamide] |
| < 2.5 | 7.2 | 7 | 174 | Cc1cc(CC(=O)Nc2cnn(C(C)(C)C)c2)ccc1Oc1ncnc2ccc(CN3CCNCC3)cc12 [Compound 253, N-(1-(tert-butyl)-1H-pyrazol-4-yl)-2-(3-methyl-4-((6-(piperazin-1-ylmethyl)quinazolin-4-yl)oxy)phenyl)acetamide] |
| < 2.5 | 2.5 | 13 | 27 | COc1cc2nccc(Oc3ccc(CC(=O)Nc4cnn(C(C)(C)C)c4)cc3C(F)F)c2cc1S(C)(=O)=O [Compound 413, N-(1-(tert-butyl)-1H-pyrazol-4-yl)-2-(3-(difluoromethyl)-4-((7-methoxy-6-(methylsulfonyl)quinolin-4-yl)oxy)phenyl) acetamide] |
| < 2.5 | 1.6 | 18 | 44 | CC(C)(C)n1cc(NC(=O)Cc2cc(Cl)c(Oc3ccnc4ccc(S(C)(=O)=O)cc34)cc2F)cn1 [Compound 429, N-(1-(tert-butyl)-1H-pyrazol-4-yl)-2-(5-chloro-2-fluoro-4-((6-(methylsulfonyl)quinolin-4-yl)oxy)phenyl)acetamide] |
| < 2.5 | 0.2 | 2.6 | 4.2 | Cc1cc(CC(=O)Nc2cnn(C(C)(C)C)c2)c(F)cc1Oc1ccnc2cc(F)c(C(N)=O)cc12 [Compound 465, 4-(4-(2-((1-(tert-butyl)-1H-pyrazol-4-yl)amino)-2-oxoethyl)-5-fluoro-2-methylphenoxy)-7-fluoroquinoline-6-carboxamide] |
| < 2.5 | 0.3 | 4.1 | 13.3 | Cc1c(Oc2ccnc3ccc(S(C)(=O)=O)cc23)cc(F)c(CC(=O)Nc2cnn(C(C)(C)C)c2)c1F [Compound 472, N-(1-(tert-butyl)-1H-pyrazol-4-yl)-2-(2,6-difluoro-3-methyl-4-((6-(methylsulfonyl)quinolin-4-yl)oxy)phenyl)acetamide] |
| < 2.5 | 3.7 | 5.9 | 22 | [2H]C([2H])([2H])NC(=O)c1ccc2nccc(Oc3cc(F)c(CC(=O)Nc4cnn(C(C)(C)C)c4)cc3C)c2c1 [Compound 492, 4-(4-(2-((1-(tert-butyl)-1H-pyrazol-4-yl)amino)-2-oxoethyl)-5-fluoro-2-methylphenoxy)-N-(methyl-d3)quinoline-6-carboxamide] |
